# Source: patent US20090030024A1, “THIAZOLES AS FUNGICIDES” (priority 2005, published 2009)
# Experiment: logP determination by retention times (calibration with alkan-2-ones)
# Details: not given
row,SMILES,chromatographic logP
1,"CSc1nc(C)c(-c2ccnc(Nc3ccc(N(C)C)c(Cl)c3)n2)s1 [Example 61, 2-chloro-N1,N1-dimethyl-N4-{4-[4-methyl-2-(methylthio)-1,3-thiazol-5-yl]pyrimidin-2-yl}benzene-1,4-diamine]",2.74
2,"Cc1nc(C(C)C)sc1-c1ccnc(Nc2cccc([N+](=O)[O-])c2)n1 [Example 246, 4-(2-isopropyl-4-methyl-1,3-thiazol-5-yl)-N-(3-nitrophenyl)pyrimidine-2-amine]",3.55
3,"CC(=O)c1cccc(Nc2nccc(-c3sc(C(C)C)nc3C)n2)c1 [Example 10, 1-(3-{[4-(2-isopropyl-4-methyl-1,3-thiazol-5-yl)pyrimidin-2-yl]amino}phenyl)ethanone]",3.1
4,"COCC(C)Nc1nc(C)c(-c2ccnc(Nc3cccc([N+](=O)[O-])c3)n2)s1 (centres unmarked) [Example 334, 4-{2-[(2-methoxy-1-methylethyl)amino]-4-methyl-1,3-thiazol-5-yl}-N-(3-nitrophenyl)pyrimidine-2-amine]",2.2
5,"Cc1nc(NCC2CCCO2)sc1-c1ccnc(Nc2cccc([N+](=O)[O-])c2)n1 (centres unmarked) [Example 355, 4-{4-methyl-2-[(tetrahydrofuran-2-ylmethyl)amino]-1,3-thiazol-5-yl}-N-(3-nitrophenyl)pyrimidine-2-amine]",2.13
6,"COCCOC(=O)Nc1ccc(Nc2nccc(-c3sc(C(C)C)nc3C)n2)cc1 [Example 74, 2-methoxyethyl-(4-{[4-(2-isopropyl-4-methyl-1,3-thiazol-5-yl)pyrimidin-2-yl]amino}phenyl)carbamate]",2.67
7,"CCc1nc(C)c(-c2ccnc(Nc3cccc(C(F)(F)F)c3)n2)s1 [Example 241, 4-(2-ethyl-4-methyl-1,3-thiazol-5-yl)-N-[3-(trifluoromethyl)phenyl]pyrimidine-2-amine]",3.85
8,"CCc1nc(C)c(-c2ccnc(Nc3cccc([N+](=O)[O-])c3)n2)s1 [Example 237, 4-(2-ethyl-4-methyl-1,3-thiazol-5-yl)-N-(3-nitrophenyl)pyrimidine-2-amine]",3.14
9,"CC(=O)c1cccc(Nc2nccc(-c3cnc(C)s3)n2)c1 [Example 11, 1-(3-{[4-(2-methyl-1,3-thiazol-5-yl)pyrimidin-2-yl]amino}phenyl)ethanone]",2.57
10,"Cc1nc(C2CC2)sc1-c1ccnc(Nc2ccc(C(F)(F)F)cc2)n1 [Example 230, 4-(2-cyclopropyl-4-methyl-1,3-thiazol-5-yl)-N-[4-(trifluoromethyl)phenyl]pyrimidine-2-amine]",4.2

# Same assay, conditions: * HPLC reversed-phase C18, 40° C., mobile phase 0.1% aqueous formic acid and acetonitrile, linear gradient 10% to 95% acetonitrile
row,SMILES,logP
1,"CN(C)c1nc(C(F)(F)F)c(-c2ccnc(Nc3cccc(Cl)c3)n2)s1 [Example 695, N-(3-chlorophenyl)-4-[2-(dimethylamine)-4-(trifluoromethyl)-1,3-thiazol-5-yl]pyrimidine-2-amine]",4.51*
2,"CNc1nc(C)c(-c2ccnc(Nc3ccc(O)cc3)n2)s1 [Example 746, 4-({4-[4-methyl-2-(methylamine)-1,3-thiazol-5-yl]pyrimidin-2-yl}amino)phenol]",1.11*
3,"CN(C)c1nc(C(F)(F)F)c(-c2ccnc(Nc3cccc(O)c3)n2)s1 [Example 702, 3-({4-[2-(dimethylamine)-4-(trifluoromethyl)-1,3-thiazol-5-yl]pyrimidin-2-yl}amino)phenol]",2.84*
4,"CN(C)c1nc(C(F)(F)F)c(-c2ccnc(Nc3ccc(F)cc3)n2)s1 [Example 777, 4-[2-(dimethylamine)-4-(trifluoromethyl)-1,3-thiazol-5-yl]-N-(4-fluorophenyl)pyrimidine-2-amine]",3.96*

# Same assay, conditions: logP, * HPLC reversed-phase C18, 40° C., mobile phase 0.1% aqueous formic acid and acetonitrile, linear gradient 10% to 95% acetonitrile
row,SMILES,chromatographic logP
1,"COc1cc(Nc2nccc(-c3sc(NCC4CCCO4)nc3C)n2)cc(OC)c1 (centres unmarked) [Example 719, N-(3,5-dimethoxyphenyl)-4-{4-methyl-2-[(tetrahydrofuran-2-ylmethyl)amino]-1,3-thiazol-5-yl}pyrimidine-2-amine]",2.02
2,"CC(=O)c1cccc(Nc2nccc(-c3sc(-c4cccnc4)nc3C)n2)c1 [Example 734, 1-(3-{[4-(4-methyl-2-pyridin-3-yl-1,3-thiazol-5-yl)pyrimidin-2-yl]amino}phenyl)ethanone]",2.56
3,"Cc1nc(C2CCCCC2)sc1-c1ccnc(Nc2ccc(N(C)C)cc2)n1 [Example 553, N′-[4-(2-cyclohexyl-4-methyl-1,3-thiazol-5-yl)pyrimidin-2-yl]-N,N-dimethylbenzene-1,4-diamine]",2.38
4,"c1ccc(Nc2nccc(-c3cnc(-c4ccccc4)s3)n2)cc1 [Example 787, N-phenyl-4-(2-phenyl-1,3-thiazol-5-yl)pyrimidine-2-amine]",3.97
5,"Cc1nc(C(C)C)sc1-c1ccnc(Nc2ccc3c(c2)OCO3)n1 [Example 619, N-1,3-benzodioxol-5-yl-4-(2-isopropyl-4-methyl-1,3-thiazol-5-yl)pyrimidine-2-amine]",3.25
6,"COCc1nc(C)c(-c2ccnc(Nc3ccc(O)cc3)n2)s1 [Example 763, 4-({4-[2-(methoxymethyl)-4-methyl-1,3-thiazol-5-yl]pyrimidin-2-yl}amino)phenol]",1.8
7,"Cc1nc(C)c(-c2ccnc(Nc3cccc(N(C)C)c3)n2)s1 [Example 551, N′-[4-(2,4-dimethyl-1,3-thiazol-5-yl)pyrimidin-2-yl]-N,N-dimethylbenzene-1,3-diamine]",1.75
8,"CCc1nc(C)c(-c2ccnc(N(C(C)=O)c3ccccc3)n2)s1 [Example 668, N-[4-(2-ethyl-4-methyl-1,3-thiazol-5-yl)pyrimidin-2-yl]-N-phenylacetamide]",2.33

# Same assay, conditions: logP, ** HPLC reversed-phase C18, 43° C., mobile phase 0.1% aqueous phosphoric acid and acetonitrile, linear gradient 10% to 95% acetonitrile
row,SMILES,chromatographic logP
1,"Cc1nc(C)c(-c2ccnc(Nc3cccc(Cl)c3)n2)s1 [Example 421, N-(3-chlorophenyl)-4-(2,4-dimethyl-1,3-thiazol-5-yl)pyrimidine-2-amine]",3.11

# Same assay, conditions: logP, values marked *: HPLC on reversed-phase C 18, 40° C., mobile phase 0.1% aqueous formic acid and acetonitrile, linear gradient 10% to 95% acetonitrile
row,SMILES,chromatographic logP
1,"Cc1nc(C(C)C)sc1-c1ccnc(Nc2cccnc2)n1 [Example 919, 4-(2-isopropyl-4-methyl-1,3-thiazol-5-yl)-N-pyridin-3-ylpyrimidine-2-amine]",1.51
2,"CCc1nc(C)c(-c2ccnc(Nc3ccc(C(=O)OCCOC)cc3)n2)s1 [Example 881, 2-methoxyethyl-4-{[4-(2-ethyl-4-methyl-1,3-thiazol-5-yl)pyrimidin-2-yl]amino}benzoate]",2.91
3,"Cc1nc(C(C)C)sc1-c1nc(Nc2cccc(Cl)c2)ncc1Br [Example 922, 5-bromo-N-(3-chlorophenyl)-4-(2-isopropyl-4-methyl-1,3-thiazol-5-yl)pyrimidine-2-amine]",4.9
4,"CCc1nc(C)c(-c2nc(Nc3ccc(Cl)cc3)ncc2Cl)s1 [Example 877, 5-chloro-N-(4-chlorophenyl)-4-(2-ethyl-4-methyl-1,3-thiazol-5-yl)pyrimidine-2-amine]",4.48
5,"CCc1nc(C)c(-c2ccnc(Nc3ccc(F)c(OC)c3)n2)s1 [Example 863, 4-(2-ethyl-4-methyl-1,3-thiazol-5-yl)-N-(4-fluoro-3-methoxyphenyl)pyrimidine-2-amine]",2.99
6,"CC(=O)c1ccc(Nc2nccc(-c3sc(NCC4CCCO4)nc3C)n2)cc1 (centres unmarked) [Example 816, 1-{4-[(4-{4-methyl-2-[(tetrahydrofuran-2-ylmethyl)amino]-1,3-thiazol-5-yl}pyrimidin-2-yl)amino]phenyl}ethanone]",1.83
